For one experiment, the system named is C. difficile 159. Nature of the experiment: MIC by agar dilution against Clostridioides difficile, test strain 15. The following applies: test strain 15, C. difficile 159, anaerobic, agar dilution, read-out: MIC. Type of experiment: cell-based. In general terms: In agar dilution the substance is mixed into plates at graded concentrations.
In a further experiment the test system is C. difficile 161. In words: MIC by agar dilution against Clostridioides difficile, test strain 16. Type of experiment: cell-based. The following applies: test strain 16, C. difficile 161, anaerobic, agar dilution, read-out: MIC.
Another experiment deals with C. difficile 152. Nature of the experiment: MIC by agar dilution against Clostridioides difficile, test strain 14. Type of experiment: cell-based. The following applies: test strain 14, C. difficile 152, anaerobic, agar dilution, read-out: MIC.
The next experiment deals with C. difficile 174. In words: MIC by agar dilution against Clostridioides difficile, test strain 18. It counts as cell-based. The following applies: test strain 18, C. difficile 174, anaerobic, agar dilution, read-out: MIC.
In a further experiment the test system is C. difficile 9689. Nature of the experiment: MIC by agar dilution against Clostridioides difficile, test strain 13. The following applies: test strain 13, C. difficile 9689, anaerobic, agar dilution, read-out: MIC. Type of experiment: cell-based.
For another experiment, the system named is C. difficile 173. Nature of the experiment: MIC by agar dilution against Clostridioides difficile, test strain 17. It counts as cell-based. The following applies: test strain 17, C. difficile 173, anaerobic, agar dilution, read-out: MIC.
A further experiment concerns C. difficile 181. In words: MIC by agar dilution against Clostridioides difficile, test strain 19. The following applies: test strain 19, C. difficile 181, anaerobic, agar dilution, read-out: MIC. Type of experiment: cell-based.
The subject of another experiment is E. faecium^LinR. In words: MIC by broth microdilution (aerobic pathogens), test strain 12. Type of experiment: cell-based, Linezolid resistant Enterococcus faecium. The following applies: Enterococcus faecium; test strain 12, E. faecium^LinR (linezolid resistant); read-out: MIC. How it is done: (§1) The antibacterial activity of the compounds of Examples 1 to 48 of the present invention against aerobic pathogens were evaluated by measuring the minimum concentration of the antibiotic capable of inhibiting bacterial growth by 90% compared to the growth of the non-drug treated control group. MIC was measured by the broth microdilution method based on CLSI standards [Reference: Clinical and Laboratory Standards Institute Document. (2000) Methods for Dilution Antimicrobial Susceptibility Test for Bacteria that Grow Aerobically-Fifth Edition: M7-A5. CLSI, Villanova, PA].
(§2) All 13 strains such as methicillin susceptible Staphylococcus aureus (MSSA), methicillin resistant Staphylococcus aureus (MRSA), Vancomycin resistant Staphylococcus aureus (VRSA), Staphylococcus epidermidis, methicillin resistant Staphylococcus epidermidis, Enterococcus faecalis, Vancomycin resistant Enterococcus faecalis, Enterococcus faecium, Vancomycin resistant Enterococcus faecium were used.

A further experiment relates to S. epidermis. In words: MIC by broth microdilution (aerobic pathogens), test strain 5. Type of experiment: cell-based. The following applies: Staphylococcus epidermidis; test strain 5, S. epidermis; read-out: MIC. How it is done:
as §1, §2

The next experiment concerns S. aureus^VR. Nature of the experiment: MIC by broth microdilution (aerobic pathogens), test strain 4. It counts as cell-based, Vancomycin resistant Staphylococcus aureus. The following applies: Staphylococcus aureus; test strain 4, S. aureus^VR (vancomycin resistant); read-out: MIC. How it is done:
as §1, §2
On the technique in general: In broth dilution the organism is exposed to a series of concentrations in liquid medium.

In experiment [1] the test system is S. aureus^MS. Nature of the experiment: MIC by broth microdilution (aerobic pathogens), test strain 2. It counts as cell-based. The following applies: Staphylococcus aureus; test strain 2, S. aureus^MS; read-out: MIC. The protocol: as §1, §2
Another experiment relates to E. faecium^VRE. In words: MIC by broth microdilution (aerobic pathogens), test strain 11. It counts as cell-based, Vancomycin resistant Enterococcus faecium. The following applies: Enterococcus faecium; test strain 11, E. faecium^VRE (vancomycin resistant); read-out: MIC. The protocol:
as §1, §2

In the next experiment the test system is S. epidermis^MR. In words: MIC by broth microdilution (aerobic pathogens), test strain 6. Type of experiment: cell-based, Methicillin resistant Staphylococcus epidermidis. The following applies: Staphylococcus epidermidis; test strain 6, S. epidermis^MR (methicillin resistant); read-out: MIC. How it is done: as §1, §2
For the next experiment, the system named is E. faecium. Nature of the experiment: MIC by broth microdilution (aerobic pathogens), test strain 10. It counts as cell-based. The following applies: Enterococcus faecium; test strain 10, E. faecium; read-out: MIC. The protocol:
as §1, §2

In experiment [2] the test system is S. aureus^MS. Nature of the experiment: MIC by broth microdilution (aerobic pathogens), test strain 1. It counts as cell-based. The following applies: Staphylococcus aureus; test strain 1, S. aureus^MS; read-out: MIC. The protocol: as §1, §2
Another experiment relates to E. faecalis^VanA. Nature of the experiment: MIC by broth microdilution (aerobic pathogens), test strain 8. It counts as cell-based, Vancomycin resistant Enterococcus faecalis. The following applies: Enterococcus faecalis; test strain 8, E. faecalis^VanA (vancomycin resistant); read-out: MIC. The protocol: as §1, §2
The next experiment concerns E. faecalis^LinR. In words: MIC by broth microdilution (aerobic pathogens), test strain 9. It counts as cell-based, Linezolid resistant Enterococcus faecalis. The following applies: Enterococcus faecalis; test strain 9, E. faecalis^LinR (linezolid resistant); read-out: MIC. The protocol: as §1, §2
The test system of the next experiment is E. faecalis. In words: MIC by broth microdilution (aerobic pathogens), test strain 7. Type of experiment: cell-based. The following applies: Enterococcus faecalis; test strain 7, E. faecalis; read-out: MIC. How it is done: as §1, §2

By MIC is commonly meant the lowest concentration that inhibits growth of the organism.

In brackets after ≈: the same amount, converted by molar mass.

For `C/C=C1\NC(=O)[C@H]([C@@H](C)O)NC(=O)c2csc(n2)-c2ccc(-c3nc(-c4nc(C(=O)NC5(C(=O)NCCn6ccnc6[N+](=O)[O-])CC5)cs4)cs3)nc2-c2csc(n2)[C@H]([C@@H](C)O)NC(=O)c2csc(n2)[C@H](C(C)C)NC(=O)c2csc1n2` [Compound 39], the MIC was 1 µg/mL (≈ 0.816 µM) with C. difficile 159; 0.25 µg/mL (≈ 0.204 µM) in the experiment with C. difficile 161; 0.25 µg/mL (≈ 0.204 µM) with C. difficile 152; 1 µg/mL (≈ 0.816 µM) in the experiment with C. difficile 174; 0.25 µg/mL (≈ 0.204 µM) with C. difficile 9689; 0.5 µg/mL (≈ 0.408 µM) in the experiment with C. difficile 173. Moreover, the MIC with C. difficile 181 amounted to 0.5 µg/mL (≈ 0.408 µM).
On to `C/C=C1\NC(=O)[C@H]([C@@H](C)O)NC(=O)c2csc(n2)-c2ccc(-c3nc(-c4nc(C(=O)NC5(C(=O)NCCn6cnc([N+](=O)[O-])n6)CC5)cs4)cs3)nc2-c2csc(n2)[C@H]([C@@H](C)O)NC(=O)c2csc(n2)[C@H](C(C)C)NC(=O)c2csc1n2` [Compound 38], for which the minimum inhibitory concentration (MIC) in the experiment with E. faecium^LinR, with S. epidermis, with S. aureus^VR, with S. aureus^MS [1], with E. faecium^VRE and in the experiment on S. epidermis^MR was 1 µg/mL (≈ 0.815 µM) throughout. The MIC in the experiment with E. faecium was 0.5 µg/mL (≈ 0.408 µM); with S. aureus^MS [2] it was 1 µg/mL (≈ 0.815 µM); in the experiment with E. faecalis^VanA, 1 µg/mL (≈ 0.815 µM).
Regarding `C/C=C1\NC(=O)[C@H]([C@@H](C)O)NC(=O)c2csc(n2)-c2ccc(-c3nc(-c4nc(C(=O)NC5(C(=O)NCCn6c([N+](=O)[O-])cnc6C)CC5)cs4)cs3)nc2-c2csc(n2)[C@H]([C@@H](C)O)NC(=O)c2csc(n2)[C@H](C(C)C)NC(=O)c2csc1n2` [Compound 11], the MIC in the experiment with C. difficile 159 worked out at 0.5 µg/mL (≈ 0.403 µM); in the experiment with S. epidermis, 0.125 µg/mL (≈ 0.101 µM); with S. aureus^MS [1], 0.5 µg/mL (≈ 0.403 µM); in the experiment on C. difficile 161, 0.5 µg/mL (≈ 0.403 µM); in the experiment on C. difficile 152, 0.25 µg/mL (≈ 0.202 µM); in the experiment with E. faecalis^LinR, 0.5 µg/mL (≈ 0.403 µM). Also, the MIC came out at 0.5 µg/mL (≈ 0.403 µM) with S. epidermis^MR; 0.125 µg/mL (≈ 0.101 µM) in the experiment on C. difficile 174; 1 µg/mL (≈ 0.807 µM) with E. faecium; 1 µg/mL (≈ 0.807 µM) with C. difficile 9689; 0.25 µg/mL (≈ 0.202 µM) in the experiment with E. faecalis; 0.125 µg/mL (≈ 0.101 µM) in the experiment with C. difficile 173. Further, the MIC in the experiment on C. difficile 181 is 0.125 µg/mL (≈ 0.101 µM); in the experiment on S. aureus^MS [2] it was 0.5 µg/mL (≈ 0.403 µM); with E. faecalis^VanA it was 1 µg/mL (≈ 0.807 µM).
Take `C/C=C(\NC(=O)c1csc(-c2csc(-c3ccc4c(n3)-c3csc(n3)[C@H]([C@@H](C)O)NC(=O)c3csc(n3)[C@H](C(C)C)NC(=O)c3csc(n3)/C(=C/C)NC(=O)[C@H]([C@@H](C)O)NC(=O)c3csc-4n3)n2)n1)C(=O)NCCn1ccnc1[N+](=O)[O-]` [Compound 43]: the MIC in the experiment on C. difficile 159 was determined as 0.5 µg/mL (≈ 0.408 µM); in the experiment on C. difficile 161 it was 0.5 µg/mL (≈ 0.408 µM); in the experiment on C. difficile 152, 0.5 µg/mL (≈ 0.408 µM); in the experiment with C. difficile 174, 0.5 µg/mL (≈ 0.408 µM); in the experiment with C. difficile 9689, 0.5 µg/mL (≈ 0.408 µM); with C. difficile 173, 1 µg/mL (≈ 0.816 µM). For the same compound, in the experiment with C. difficile 181, the MIC turned out to be 0.5 µg/mL (≈ 0.408 µM).
In the case of `C/C=C1\NC(=O)[C@H]([C@@H](C)O)NC(=O)c2csc(n2)-c2ccc(-c3nc(-c4nc(C(=O)NC5(C(=O)NCCCCB(O)O)CC5)cs4)cs3)nc2-c2csc(n2)[C@H]([C@@H](C)O)NC(=O)c2csc(n2)[C@H](C(C)C)NC(=O)c2csc1n2` [Compound 20], the MIC in the experiment on C. difficile 159 was found to be 0.5 µg/mL (≈ 0.421 µM); in the experiment with E. faecium^LinR, 1 µg/mL (≈ 0.843 µM); in the experiment on S. epidermis, 0.5 µg/mL (≈ 0.421 µM); in the experiment with S. aureus^MS [1], 0.125 µg/mL (≈ 0.105 µM); in the experiment on C. difficile 161, 1 µg/mL (≈ 0.843 µM); in the experiment with C. difficile 152 it was 0.25 µg/mL (≈ 0.211 µM). For the same compound, the MIC was 1 µg/mL (≈ 0.843 µM) in the experiment with E. faecium^VRE; 0.25 µg/mL (≈ 0.211 µM) in the experiment on E. faecalis^LinR; 0.5 µg/mL (≈ 0.421 µM) with S. epidermis^MR; 0.25 µg/mL (≈ 0.211 µM) with C. difficile 174; 0.5 µg/mL (≈ 0.421 µM) with E. faecium; 0.25 µg/mL (≈ 0.211 µM) in the experiment on C. difficile 9689. Also, the minimal inhibitory concentration (MIC) with E. faecalis stood at 0.5 µg/mL (≈ 0.421 µM); in the experiment on C. difficile 173, 0.5 µg/mL (≈ 0.421 µM); with C. difficile 181 it was 1 µg/mL (≈ 0.843 µM); in the experiment with S. aureus^MS [2] it was 0.25 µg/mL (≈ 0.211 µM).

For the origin of these results see patent publication US12637478B2, “Compound, preparation method thereof, and antibiotic composition comprising same” (priority 2020, dated 2026).
